We go through 14 molecules from PMC12467433, “Isoniazid-Derived Hydrazones Featuring Piperazine/Piperidine Rings: Design, Synthesis, and Investigation of Antitubercular Activity” (Biomolecules, 2025).

The test system of one data set is Mtb H37Rv. Kind of data set: Microplate Alamar Blue Assay (MABA), Mtb H37Rv. The data set is classed as cell-based, Mycobacterium tuberculosis. The following applies: for MIC: MABA, one-week incubation.
In the next data set the target is T1, InhA (Mycobacterium tuberculosis, UniProt P9WGR1).
T1 construct: made in house
T1 sequence (P9WGR1 whole entry, looked up): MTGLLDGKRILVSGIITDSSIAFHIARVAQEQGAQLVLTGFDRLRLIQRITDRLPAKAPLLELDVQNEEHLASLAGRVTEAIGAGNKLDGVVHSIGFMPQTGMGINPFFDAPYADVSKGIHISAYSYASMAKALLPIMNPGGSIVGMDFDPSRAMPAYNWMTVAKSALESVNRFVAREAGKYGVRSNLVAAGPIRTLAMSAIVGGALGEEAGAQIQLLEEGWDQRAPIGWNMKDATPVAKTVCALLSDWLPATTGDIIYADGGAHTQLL
Kind of data set: InhA inhibition (NADH oxidation at 340 nm, DDCoA substrate). The format is biochemical. The following applies: for inhibition at 50 µM: at 50 μM concentration, NI: No inhibition.

Data set [1] is described as follows: MTT cytotoxicity assay, A549. The data set is classed as cell-based. The note with it: human, A549 cells, triplicate, read-out: Toxicity IC50. An excerpt: (§1) 2.2.2. Assay for Host Cytotoxicity Determination
(§2) The MTT (3-(4,5-dimethylthiazol-2-yl)-2,5-diphenyltetrazolium bromide) assay was applied to determine the cytotoxicity of the synthesized molecules against Human Embryonic Kidney cells (HEK 293) and adenocarcinomic human alveolar basal epithelial cells (A549) cell lines, obtained from the American Type Culture Collection (ATCC) with the accession numbers ATCC CRL-1573 and ATCC CCL-185, respectively. […] A vehicle control containing 1% DMSO in culture medium without any compound was included to account for any solvent-related effects. Cells were seeded at a density of 1 × 10^4 cells per well in a sterile 96-well microtiter plate and incubated for 24 h to allow attachment. Following this, the compounds were added in ten-fold serial dilutions ranging from 100 μM to 0.001 μM, and the plates were incubated for 48 h at 37 °C with 5% CO2.
(§3) After incubation, the medium was removed and replaced with 10 μL of MTT solution (5 mg/mL) in each well, followed by a 3 h incubation under the same conditions. The MTT reagent was then discarded, and 100 μL of DMSO was added to each well to solubilize the formazan crystals. Absorbance was measured at 580 nm using a Thermo Scientific Varioskan LUX microplate reader, with blanks subtracted from each value. All experiments were performed in three independent biological replicates, for every concentration tested. The IC50 values were calculated using GraphPad Prism 10.6.0 [28, 29].
(In general: Tetrazolium dyes change colour on reduction, which living cells bring about.)

The nature of data set [2]: MTT cytotoxicity assay, HEK 293. The note with it: human, HEK 293 cells, HEK 293, MTT, triplicate, read-out: Toxicity IC50. The format is cell-based.
Source text: as §1, §2, §3

The mark [3] stands for this setting: Mycobacterium tuberculosis, H37RV, 168 h.

Values after ≈ are worked out from the molar mass of the structure shown. Like-named read-outs stand apart in the source and are kept apart here.

In the data set on Mtb H37Rv (Mycobacterium tuberculosis), `NNC(=O)c1ccncc1` [INH, isonicotinic acid hydrazide, reference compound] displayed an MIC50 of 0.23 ± 0.04 µM (≈ 0.0315 µg/mL). In addition, 0.39 µM (≈ 0.0535 µg/mL) was the least that counted as inhibitory against Mtb H37Rv (setting [3]) (MIC).

On to `O=C(NN=Cc1ccc(N2CCN(c3ccccc3)CC2)cc1)c1ccncc1` [IP1, N′-(4-(4-Phenylpiperazin-1-yl)benzylidene)isonicotinohydrazide], for which the inhibition at 50 µM on InhA was under 10%. Also, in the data set on Mtb H37Rv (setting [3]), it took 50 µM (≈ 19.3 µg/mL) to inhibit growth (MIC).

`O=C(NN=Cc1ccc(N2CCN(c3ccccc3F)CC2)cc1)c1ccncc1` [IP2, N′-(4-(4-(2-Fluorophenyl)piperazin-1-yl)benzylidene)isonicotinohydrazide] showed an inhibition at 50 µM at InhA of 19%. For the same molecule, the MIC with Mtb H37Rv and in the data set with Mtb H37Rv (setting [3]) was over 100 µM in each case.

Molecule `O=C(NN=Cc1ccc(N2CCN(c3ccc(Cl)cc3)CC2)cc1)c1ccncc1` [IP3, N′-(4-(4-(4-Chlorophenyl)piperazin-1-yl)benzylidene)isonicotinohydrazide] registered an inhibition at 50 µM at InhA of 21%. Further, it took 50 µM (≈ 21 µg/mL) to inhibit growth with Mtb H37Rv (setting [3]) (MIC).

As to `O=C(NN=Cc1ccc(N2CCN(c3ccc(Br)cc3)CC2)cc1)c1ccncc1` [IP4, N′-(4-(4-(4-Bromophenyl)piperazin-1-yl)benzylidene)isonicotinohydrazide], on InhA, the inhibition at 50 µM is under 10%. In addition, the lowest concentration to inhibit growth against Mtb H37Rv (setting [3]) (MIC) was 100 µM (≈ 46.4 µg/mL).

Regarding `Cc1ccc(N2CCN(c3ccc(C=NNC(=O)c4ccncc4)cc3)CC2)c(C)c1` [IP5, N′-(4-(4-(2,4-Dimethylphenyl)piperazin-1-yl)benzylidene)isonicotinohydrazide], at InhA, the inhibition at 50 µM amounted to 16%. In the data set with Mtb H37Rv (setting [3]), this molecule displayed an MIC of 50 µM (≈ 20.7 µg/mL).

With `O=C(NN=Cc1ccc(N2CCN(c3ccc(C(F)(F)F)cc3)CC2)cc1)c1ccncc1` [IP6, N′-(4-(4-(4-(Trifluoromethyl)phenyl)piperazin-1-yl)benzylidene)isonicotinohydrazide], testing at 50 µM against InhA gave an inhibition of 37%. Inhibition of growth against Mtb H37Rv (setting [3]) (MIC) required 12.5 µM (≈ 5.67 µg/mL).

In turn, `COc1ccc(N2CCN(c3ccc(C=NNC(=O)c4ccncc4)cc3)CC2)cc1` [IP7, N′-(4-(4-(4-Methoxyphenyl)piperazin-1-yl)benzylidene)isonicotinohydrazide] had an inhibition at 50 µM against InhA of 10%. The molecule also registered an MIC50 in the data set on Mtb H37Rv (Mycobacterium tuberculosis) of 0.74 ± 0.1 µM (≈ 0.307 µg/mL). Besides, the MIC in the data set with Mtb H37Rv (setting [3]) is at most 0.78 µM.

In the case of `O=C(NN=Cc1ccc(N2CCN(c3ccccn3)CC2)cc1)c1ccncc1` [IP8, N′-(4-(4-(Pyridin-2-yl)piperazin-1-yl)benzylidene)isonicotinohydrazide], the IC50 at 48 h in data set [1] and in data set [2] was over 100 µM in each case. The inhibition at 50 µM against InhA is under 10%. In the data set on Mtb H37Rv (Mycobacterium tuberculosis), this molecule registered an MIC50 of 0.31 ± 0.21 µM (≈ 0.12 µg/mL). The same molecule displayed a minimum inhibitory concentration (MIC) in the data set on Mtb H37Rv (setting [3]) of at most 0.78 µM.

As for `O=C(NN=Cc1ccc(N2CCN(c3ncccn3)CC2)cc1)c1ccncc1` [IP9, N′-(4-(4-(Pyrimidin-2-yl)piperazin-1-yl)benzylidene)isonicotinohydrazide], the 50% inhibitory concentration (IC50) at 48 h in data set [1] and in data set [2] was over 100 µM each time. This molecule also came in with an inhibition at 50 µM at InhA of under 10%. Moreover, the MIC50 in the data set on Mtb H37Rv (Mycobacterium tuberculosis) was 0.79 ± 0.23 µM (≈ 0.306 µg/mL). Moreover, the MIC in the data set with Mtb H37Rv (setting [3]) is at most 0.78 µM.

With `CN1CCN(c2ccc(C=NNC(=O)c3ccncc3)cc2)CC1` [IP10, N′-(4-(4-Methylpiperazin-1-yl)benzylidene)isonicotinohydrazide], the IC50 at 48 h in data set [1] and in data set [2] was over 100 µM throughout. This molecule also yielded an inhibition at 50 µM against InhA of 30%. This molecule also gave an MIC50 with Mtb H37Rv (Mycobacterium tuberculosis) of 0.31 ± 0.04 µM (≈ 0.1 µg/mL). In the data set on Mtb H37Rv (setting [3]), this molecule registered an MIC of at most 0.78 µM.

For `O=C(NN=Cc1ccc(N2CCN(C3CCCCC3)CC2)cc1)c1ccncc1` [IP11, N′-(4-(4-Cyclohexylpiperazin-1-yl)benzylidene)isonicotinohydrazide], the concentration for half-maximal inhibition (IC50) at 48 h in data set [1] and in data set [2] was over 100 µM in each case. This molecule came in with an inhibition at 50 µM at InhA of 81%. Moreover, on InhA (read-out: IC50 against InhA enzyme), the half-maximal inhibitory concentration (IC50) stood at 26.4 ± 3.97 µM. Moreover, the values for the MIC50 in the data set on Mtb H37Rv and in the data set on Mtb H37Rv (Mycobacterium tuberculosis) were 0.29 µM (≈ 0.114 µg/mL) and 0.29 ± 0.05 µM (≈ 0.114 µg/mL), respectively. The same molecule showed an MIC in the data set on Mtb H37Rv (setting [3]) of at most 0.78 µM.

For the molecule `CCOC(=O)C1CCN(c2ccc(C=NNC(=O)c3ccncc3)cc2)CC1` [IP12, Ethyl 1-(4-((2-isonicotinoylhydrazono)methyl)phenyl)piperidine-4-carboxylate], the IC50 at 48 h in data set [1] and in data set [2] was over 100 µM in each case. On InhA, this molecule yielded an inhibition at 50 µM of 17%. Further, the MIC50 against Mtb H37Rv (Mycobacterium tuberculosis) was 0.47 ± 0.05 µM (≈ 0.179 µg/mL). The minimal inhibitory concentration (MIC) in the data set on Mtb H37Rv (setting [3]) is at most 0.78 µM.

On to `NC(=O)C1CCN(c2ccc(C=NNC(=O)c3ccncc3)cc2)CC1` [IP13, 1-(4-((2-Isonicotinoylhydrazono)methyl)phenyl)piperidine-4-carboxamide], for which the half-maximal inhibitory concentration (IC50) at 48 h in data set [1] and in data set [2] was over 100 µM each time. Moreover, the inhibition at 50 µM at InhA is under 10%. Further, the MIC50 against Mtb H37Rv (Mycobacterium tuberculosis) is 0.53 ± 0.24 µM (≈ 0.186 µg/mL). The same molecule gave an MIC with Mtb H37Rv (setting [3]) of at most 0.78 µM.

As usually defined, the MIC50 is the lowest concentration that inhibits either 50% of growth or 50% of the strains tested, depending on the study. A higher MIC50 goes with lower susceptibility. By MIC is commonly meant the least concentration at which growth counts as inhibited. As a reminder, the inhibition is the percentage by which the read-out fell short of the control. A lower inhibition goes with a response near the control. As a reminder, the IC50 is the concentration needed to halve the response being measured.
